# Results as given in ChEMBL document CHEMBL3352578 (J Med Chem, 2014).
# Target: T1, Metabotropic glutamate receptor 2 (Homo sapiens, UniProt Q14416)
# Experiment: Positive allosteric modulation of human mGlu2 receptor expressed in CHO cells assessed as potentiation of glutamate-induced effect incubated for 30 mins prior to [35S]GTPgamma addition measured after 30 mins relative to glutamate
# Format: functional, cell-based
# Conditions: not given
# Target sequence in this assay (Q14416 19-872 limits assumed): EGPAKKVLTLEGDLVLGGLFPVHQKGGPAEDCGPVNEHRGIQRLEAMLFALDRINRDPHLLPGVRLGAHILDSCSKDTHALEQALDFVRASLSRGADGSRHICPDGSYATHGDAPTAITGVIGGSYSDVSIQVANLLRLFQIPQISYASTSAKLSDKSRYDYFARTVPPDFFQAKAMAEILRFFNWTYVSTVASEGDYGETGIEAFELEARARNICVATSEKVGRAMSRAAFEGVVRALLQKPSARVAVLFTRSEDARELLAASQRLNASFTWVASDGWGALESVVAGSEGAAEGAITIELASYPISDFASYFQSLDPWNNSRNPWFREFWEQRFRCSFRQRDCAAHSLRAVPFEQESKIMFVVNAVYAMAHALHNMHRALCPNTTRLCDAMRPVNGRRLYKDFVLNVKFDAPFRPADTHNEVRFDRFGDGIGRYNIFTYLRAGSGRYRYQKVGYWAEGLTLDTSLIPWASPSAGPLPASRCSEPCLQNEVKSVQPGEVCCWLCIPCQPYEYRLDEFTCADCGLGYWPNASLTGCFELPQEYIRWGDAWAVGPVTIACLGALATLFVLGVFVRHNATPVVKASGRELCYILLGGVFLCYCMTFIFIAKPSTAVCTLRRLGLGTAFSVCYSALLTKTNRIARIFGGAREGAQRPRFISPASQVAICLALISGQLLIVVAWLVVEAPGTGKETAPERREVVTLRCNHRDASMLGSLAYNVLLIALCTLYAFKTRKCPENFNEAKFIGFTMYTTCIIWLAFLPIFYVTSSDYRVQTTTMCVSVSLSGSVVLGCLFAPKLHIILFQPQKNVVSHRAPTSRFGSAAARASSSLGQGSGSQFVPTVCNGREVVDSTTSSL
row,Structure (SMILES),Emax
1,CC(C)CCn1ccc(N2CCC(c3ccccc3)CC2)c(C#N)c1=O,268%
2,CC(C)CCn1ccc(OCc2ccccc2)c(C#N)c1=O,173%
3,CC(C)CCn1ccc(-c2ccccc2)c(C#N)c1=O,135%
4,CC(C)CCn1ccc(N2CCCCC2)c(C#N)c1=O,185%
5,N#Cc1c(N2CCC(c3ccccc3)CC2)ccn(CCCC(F)(F)F)c1=O,302%
6,COc1ccc(C2CCN(c3ccn(CC4CC4)c(=O)c3C#N)CC2)cc1,257%
7,CC(C)Cn1ccc(N2CCC(c3ccccc3)CC2)c(C#N)c1=O,316%
8,CC(C)CCn1ccc(N2CCc3ccccc3C2)c(C#N)c1=O,310%
9,O=c1c(C(F)(F)F)c(N2CCC(c3ccccc3)CC2)ccn1CC1CC1,239%
10,CC(C)CCn1ccc(N2CCN(c3ccccc3)CC2)c(C#N)c1=O,118%

# More lines, now with the values ahead:
row,Emax,Structure (SMILES)
1,259%,N#Cc1c(N2CCC(c3ccccc3Cl)CC2)ccn(CC2CC2)c1=O
2,191%,N#Cc1c(N2CCC(c3cccc(C(F)(F)F)c3)CC2)ccn(CC2CC2)c1=O
3,291%,N#Cc1c(N2CCC(c3c(F)cccc3F)CC2)ccn(CC2CC2)c1=O
4,258%,N#Cc1c(N2CCC(c3ccc(F)cc3)CC2)ccn(CC2CC2)c1=O
5,282%,N#Cc1c(N2CCC(c3ccccc3F)CC2)ccn(CC2CC2)c1=O
6,269%,N#Cc1c(N2CCC(c3ccccc3)CC2)ccn(CC2CCC2)c1=O

# System: not listed separately
# Experiment: Metabolic stability in rat liver microsomes assessed as compound metabolized at 5 uM after 15 mins by MS/MS analysis in presence of NADPH
# Format: ADME
# Conditions: read-out: Drug metabolism
row,Structure (SMILES),"metabolised at 0.25 h, 5 µM"
1,CC(C)CCn1ccc(N2CCC(c3ccccc3)CC2)c(C#N)c1=O,97%
2,CC(C)CCn1ccc(OCc2ccccc2)c(C#N)c1=O,90%
3,CC(C)CCn1ccc(-c2ccccc2)c(C#N)c1=O,100%
4,CC(C)CCn1ccc(N2CCCCC2)c(C#N)c1=O,100%
5,N#Cc1c(N2CCC(c3ccccc3)CC2)ccn(CCCC(F)(F)F)c1=O,43%
6,COc1ccc(C2CCN(c3ccn(CC4CC4)c(=O)c3C#N)CC2)cc1,57%
7,CC(C)Cn1ccc(N2CCC(c3ccccc3)CC2)c(C#N)c1=O,47%
8,CC(C)CCn1ccc(N2CCc3ccccc3C2)c(C#N)c1=O,100%
9,O=c1c(C(F)(F)F)c(N2CCC(c3ccccc3)CC2)ccn1CC1CC1,89%
10,CC(C)CCn1ccc(N2CCN(c3ccccc3)CC2)c(C#N)c1=O,90%

# Now from value to compound:
row,"metabolised at 0.25 h, 5 µM",Structure (SMILES)
1,34%,N#Cc1c(N2CCC(c3ccccc3Cl)CC2)ccn(CC2CC2)c1=O
2,39%,N#Cc1c(N2CCC(c3cccc(C(F)(F)F)c3)CC2)ccn(CC2CC2)c1=O
3,42%,N#Cc1c(N2CCC(c3c(F)cccc3F)CC2)ccn(CC2CC2)c1=O
4,36%,N#Cc1c(N2CCC(c3ccc(F)cc3)CC2)ccn(CC2CC2)c1=O
5,42%,N#Cc1c(N2CCC(c3ccccc3F)CC2)ccn(CC2CC2)c1=O
6,86%,N#Cc1c(N2CCC(c3ccccc3)CC2)ccn(CC2CCC2)c1=O

# Target: hERG (KCNH2) (Homo sapiens, UniProt Q12809)
# Sequence (Q12809 whole entry): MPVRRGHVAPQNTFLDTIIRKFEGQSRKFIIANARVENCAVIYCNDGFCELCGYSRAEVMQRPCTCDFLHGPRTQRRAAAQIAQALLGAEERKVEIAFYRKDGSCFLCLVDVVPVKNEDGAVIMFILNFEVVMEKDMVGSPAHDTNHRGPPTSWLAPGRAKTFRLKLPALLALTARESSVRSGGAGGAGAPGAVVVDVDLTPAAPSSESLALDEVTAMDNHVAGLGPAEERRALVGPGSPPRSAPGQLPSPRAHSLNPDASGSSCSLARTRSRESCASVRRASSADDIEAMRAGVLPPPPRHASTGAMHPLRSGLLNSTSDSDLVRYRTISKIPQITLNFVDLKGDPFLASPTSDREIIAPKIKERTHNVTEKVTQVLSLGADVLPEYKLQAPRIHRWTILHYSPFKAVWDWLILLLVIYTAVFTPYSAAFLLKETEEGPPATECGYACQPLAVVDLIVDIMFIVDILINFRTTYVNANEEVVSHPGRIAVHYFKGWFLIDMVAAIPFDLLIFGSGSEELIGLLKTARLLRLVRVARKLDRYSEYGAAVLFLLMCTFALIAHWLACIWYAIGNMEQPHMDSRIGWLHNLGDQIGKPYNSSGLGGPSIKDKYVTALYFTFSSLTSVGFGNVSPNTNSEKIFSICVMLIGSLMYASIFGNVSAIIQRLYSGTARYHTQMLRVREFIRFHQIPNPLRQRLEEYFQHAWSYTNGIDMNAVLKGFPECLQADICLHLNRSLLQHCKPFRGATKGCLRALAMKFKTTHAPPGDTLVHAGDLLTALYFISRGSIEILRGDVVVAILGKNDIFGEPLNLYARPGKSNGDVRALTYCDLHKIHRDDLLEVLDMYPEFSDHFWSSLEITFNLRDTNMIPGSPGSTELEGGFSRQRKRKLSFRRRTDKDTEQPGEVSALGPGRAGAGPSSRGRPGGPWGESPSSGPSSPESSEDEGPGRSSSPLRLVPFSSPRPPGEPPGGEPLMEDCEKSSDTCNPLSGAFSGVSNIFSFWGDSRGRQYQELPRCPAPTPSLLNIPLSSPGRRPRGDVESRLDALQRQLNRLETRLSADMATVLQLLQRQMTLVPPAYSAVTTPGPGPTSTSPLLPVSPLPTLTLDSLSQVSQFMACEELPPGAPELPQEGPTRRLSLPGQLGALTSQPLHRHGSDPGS
# Experiment: Inhibition of human ERG channel transfected in HEK293 cells at 3 uM by patch clamp technique
# Format: cell-based
# Conditions: HEK293 cells transfected with human ERG channel
row,Structure (SMILES),inhibition at 3 µM
1,N#Cc1c(N2CCC(c3cccc(C(F)(F)F)c3)CC2)ccn(CC2CC2)c1=O,97%
2,N#Cc1c(N2CCC(c3c(F)cccc3F)CC2)ccn(CC2CC2)c1=O,86%
3,N#Cc1c(N2CCC(c3ccc(F)cc3)CC2)ccn(CC2CC2)c1=O,89%
4,N#Cc1c(N2CCC(c3ccccc3F)CC2)ccn(CC2CC2)c1=O,75%

# System: not listed separately
# Experiment: Metabolic stability in human liver microsomes assessed as compound metabolized at 5 uM after 15 mins by MS/MS analysis in presence of NADPH
# Format: ADME
# Conditions: read-out: Drug metabolism
row,Structure (SMILES),"metabolised at 0.25 h, 5 µM"
1,CC(C)CCn1ccc(N2CCC(c3ccccc3)CC2)c(C#N)c1=O,28%
2,CC(C)CCn1ccc(OCc2ccccc2)c(C#N)c1=O,22%
3,CC(C)CCn1ccc(-c2ccccc2)c(C#N)c1=O,36%
4,CC(C)CCn1ccc(N2CCCCC2)c(C#N)c1=O,67%
5,N#Cc1c(N2CCC(c3ccccc3)CC2)ccn(CCCC(F)(F)F)c1=O,18%
6,COc1ccc(C2CCN(c3ccn(CC4CC4)c(=O)c3C#N)CC2)cc1,76%
7,CC(C)Cn1ccc(N2CCC(c3ccccc3)CC2)c(C#N)c1=O,37%
8,CC(C)CCn1ccc(N2CCc3ccccc3C2)c(C#N)c1=O,74%
9,O=c1c(C(F)(F)F)c(N2CCC(c3ccccc3)CC2)ccn1CC1CC1,33%
10,CC(C)CCn1ccc(N2CCN(c3ccccc3)CC2)c(C#N)c1=O,50%

# Second part, the compound after the results:
row,"metabolised at 0.25 h, 5 µM",Structure (SMILES)
1,22%,N#Cc1c(N2CCC(c3ccccc3Cl)CC2)ccn(CC2CC2)c1=O
2,35%,N#Cc1c(N2CCC(c3cccc(C(F)(F)F)c3)CC2)ccn(CC2CC2)c1=O
3,18%,N#Cc1c(N2CCC(c3c(F)cccc3F)CC2)ccn(CC2CC2)c1=O
4,31%,N#Cc1c(N2CCC(c3ccc(F)cc3)CC2)ccn(CC2CC2)c1=O
5,30%,N#Cc1c(N2CCC(c3ccccc3F)CC2)ccn(CC2CC2)c1=O
6,46%,N#Cc1c(N2CCC(c3ccccc3)CC2)ccn(CC2CCC2)c1=O

# Target: T1, Metabotropic glutamate receptor 2
# Experiment: Positive allosteric modulation of human mGlu2 receptor expressed in CHO cells assessed as potentiation of glutamate-induced effect incubated for 30 mins prior to [35S]GTPgamma addition measured after 30 mins
# Format: functional, cell-based
# Conditions: not given
# Target sequence in this assay (Q14416 whole entry): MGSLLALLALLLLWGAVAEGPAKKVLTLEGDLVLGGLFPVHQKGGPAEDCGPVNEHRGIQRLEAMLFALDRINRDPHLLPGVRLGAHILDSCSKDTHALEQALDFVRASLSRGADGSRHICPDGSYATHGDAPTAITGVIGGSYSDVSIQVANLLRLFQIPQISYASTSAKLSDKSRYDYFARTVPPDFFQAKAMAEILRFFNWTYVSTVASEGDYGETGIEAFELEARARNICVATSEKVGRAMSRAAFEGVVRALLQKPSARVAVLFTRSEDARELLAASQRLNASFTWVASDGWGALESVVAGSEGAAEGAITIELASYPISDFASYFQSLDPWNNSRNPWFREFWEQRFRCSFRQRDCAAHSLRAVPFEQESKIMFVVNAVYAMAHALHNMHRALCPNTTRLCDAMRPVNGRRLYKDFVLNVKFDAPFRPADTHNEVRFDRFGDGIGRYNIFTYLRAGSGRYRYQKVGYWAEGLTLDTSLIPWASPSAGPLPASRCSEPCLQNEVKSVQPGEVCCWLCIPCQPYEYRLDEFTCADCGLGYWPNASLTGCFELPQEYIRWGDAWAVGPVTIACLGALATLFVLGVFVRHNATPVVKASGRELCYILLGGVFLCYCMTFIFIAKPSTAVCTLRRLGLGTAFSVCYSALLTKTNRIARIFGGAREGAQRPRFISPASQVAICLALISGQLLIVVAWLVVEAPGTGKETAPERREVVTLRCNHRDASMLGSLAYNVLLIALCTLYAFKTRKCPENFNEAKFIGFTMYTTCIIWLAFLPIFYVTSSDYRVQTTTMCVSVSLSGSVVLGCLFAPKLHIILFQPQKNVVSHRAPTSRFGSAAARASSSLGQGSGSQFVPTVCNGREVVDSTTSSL
row,Structure (SMILES),EC50
1,CC(C)CCn1ccc(N2CCC(c3ccccc3)CC2)c(C#N)c1=O,0.102 µM
2,CC(C)CCn1ccc(OCc2ccccc2)c(C#N)c1=O,2.95 µM
3,CC(C)CCn1ccc(N2CCCCC2)c(C#N)c1=O,31.6 µM
4,N#Cc1c(N2CCC(c3ccccc3)CC2)ccn(CCCC(F)(F)F)c1=O,0.355 µM
5,COc1ccc(C2CCN(c3ccn(CC4CC4)c(=O)c3C#N)CC2)cc1,0.098 µM
6,CC(C)Cn1ccc(N2CCC(c3ccccc3)CC2)c(C#N)c1=O,0.282 µM
7,CC(C)CCn1ccc(N2CCc3ccccc3C2)c(C#N)c1=O,0.871 µM
8,CC(C)CCn1ccc(N2CCN(c3ccccc3)CC2)c(C#N)c1=O,0.661 µM

# Results, then the compound that gave them:
row,EC50,Structure (SMILES)
1,0.049 µM,N#Cc1c(N2CCC(c3ccccc3Cl)CC2)ccn(CC2CC2)c1=O
2,0.046 µM,N#Cc1c(N2CCC(c3cccc(C(F)(F)F)c3)CC2)ccn(CC2CC2)c1=O
3,0.031 µM,N#Cc1c(N2CCC(c3c(F)cccc3F)CC2)ccn(CC2CC2)c1=O
4,0.089 µM,N#Cc1c(N2CCC(c3ccc(F)cc3)CC2)ccn(CC2CC2)c1=O
5,0.081 µM,N#Cc1c(N2CCC(c3ccccc3F)CC2)ccn(CC2CC2)c1=O
6,0.055 µM,N#Cc1c(N2CCC(c3ccccc3)CC2)ccn(CC2CCC2)c1=O
